Data as given in patent US12077503B2, “Substituted cyclic amides and their use as herbicides” (FMC CORPORATION, priority 2015, dated 2024).

Key:
Format in all cases: in vivo
[1] = test system: ivy-leaved morning glory (Ipomoea hederacea); assay: Test G Post-Emergence Protocol; conditions: Ipomoea, post-emergence, 312 h, read-out: Morningglory, Ivy-leaved damage rating; for pest or weed control at 15.625 g/ha: 15.625 g ai/ha, evaluated after 13 days (100=total damage to plant; 0=no damage to plant); for pest or weed control at 62.5 g/ha: 62.5 g ai/ha; for pest or weed control at 62.5 g/ha / pest or weed control at 250 g/ha: evaluated after 13 days, 100=total damage to plant, 0=no damage to plant; for pest or weed control at 250 g/ha: 250 g ai/ha
How it was run: (§1)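 Foliar application was made 8 days after sowing, using an aqueous spray of the active in acetone/water (50:50) with 0.5% Tween 20, at doses of 15.625, 62.5 or 250 g/ha. Injury was assessed 13 days later, where 100 meant the plant was fully damaged.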

[2] = test system: velvetleaf (Abutilon theophrasti); assay: Test G Post-Emergence Protocol; conditions: Abutilon theophrasti, post-emergence, 312 h, read-out: Velvetleaf damage rating; for pest or weed control at 15.625 g/ha: 15.625 g ai/ha, evaluated after 13 days (100=total damage to plant; 0=no damage to plant); for pest or weed control at 62.5 g/ha: 62.5 g ai/ha; for pest or weed control at 62.5 g/ha / pest or weed control at 250 g/ha: evaluated after 13 days, 100=total damage to plant, 0=no damage to plant; for pest or weed control at 250 g/ha: 250 g ai/ha
How it was run: as §1

[3] = test system: redroot pigweed (Amaranthus retroflexus); assay: Test G Post-Emergence Protocol; conditions: Amaranthus retroflexus, post-emergence, 312 h, read-out: Pigweed, Redroot damage rating; for pest or weed control at 15.625 g/ha: 15.625 g ai/ha, evaluated after 13 days (100=total damage to plant; 0=no damage to plant); for pest or weed control at 62.5 g/ha: 62.5 g ai/ha; for pest or weed control at 62.5 g/ha / pest or weed control at 250 g/ha: evaluated after 13 days, 100=total damage to plant, 0=no damage to plant; for pest or weed control at 250 g/ha: 250 g ai/ha
How it was run: as §1

[4] = test system: barnyardgrass (Echinochloa crus-galli); assay: Test G Post-Emergence Protocol; conditions: Echinochloa crus-galli, post-emergence, 312 h, read-out: Barnyardgrass damage rating; for pest or weed control at 15.625 g/ha: 15.625 g ai/ha, evaluated after 13 days (100=total damage to plant; 0=no damage to plant); for pest or weed control at 62.5 g/ha: 62.5 g ai/ha; for pest or weed control at 62.5 g/ha / pest or weed control at 250 g/ha: evaluated after 13 days, 100=total damage to plant, 0=no damage to plant; for pest or weed control at 250 g/ha: 250 g ai/ha
How it was run: as §1

[5] = test system: corn (Zea mays); assay: Test G Post-Emergence Protocol; conditions: Zea mays, post-emergence, 312 h, read-out: Corn damage rating; for plant injury at 15.625 g/ha: 15.625 g ai/ha, evaluated after 13 days (100=total damage to plant; 0=no damage to plant); for plant injury at 62.5 g/ha: 62.5 g ai/ha; for plant injury at 62.5 g/ha / plant injury at 250 g/ha: evaluated after 13 days, 100=total damage to plant, 0=no damage to plant; for plant injury at 250 g/ha: 250 g ai/ha
How it was run: as §1

[6] = test system: giant foxtail (Setaria faberi); assay: Test G Post-Emergence Protocol; conditions: Setaria faberi, post-emergence, 312 h, read-out: Foxtail, Giant damage rating; for pest or weed control at 15.625 g/ha: 15.625 g ai/ha, evaluated after 13 days (100=total damage to plant; 0=no damage to plant); for pest or weed control at 62.5 g/ha: 62.5 g ai/ha; for pest or weed control at 62.5 g/ha / pest or weed control at 250 g/ha: evaluated after 13 days, 100=total damage to plant, 0=no damage to plant; for pest or weed control at 250 g/ha: 250 g ai/ha
How it was run: as §1

[7] = test system: ivy-leaved morning glory (Ipomoea hederacea); assay: Test G Pre-Emergence Protocol; conditions: Ipomoea, pre-emergence, 312 h, evaluated after 13 days; for pest or weed control at 15.625 g/ha: 15.625 g ai/ha; for pest or weed control at 15.625 g/ha / pest or weed control at 250 g/ha: read-out: Morningglory, Ivy-leaved damage rating (100=total damage to plant; 0=no damage to plant); for pest or weed control at 62.5 g/ha: 62.5 g ai/ha, 100=total damage to plant, 0=no damage to plant, read-out: Morningglory, Ivy-leaved damage rating; for pest or weed control at 250 g/ha: 250 g ai/ha
How it was run: (§2)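 Herbicidal effect was rated 13 days post-application on a scale where 100 equals total damage. Spraying took place the day after sowing, using 15.625, 62.5 or 250 g/ha of compound in a 50:50 acetone/water solution with 0.5% Tween 20.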

[8] = test system: velvetleaf (Abutilon theophrasti); assay: Test G Pre-Emergence Protocol; conditions: Abutilon theophrasti, pre-emergence, 312 h, evaluated after 13 days; for pest or weed control at 15.625 g/ha: 15.625 g ai/ha; for pest or weed control at 15.625 g/ha / pest or weed control at 250 g/ha: read-out: Velvetleaf damage rating (100=total damage to plant; 0=no damage to plant); for pest or weed control at 62.5 g/ha: 62.5 g ai/ha, 100=total damage to plant, 0=no damage to plant, read-out: Velvetleaf damage rating; for pest or weed control at 250 g/ha: 250 g ai/ha
How it was run: as §2

[9] = test system: redroot pigweed (Amaranthus retroflexus); assay: Test G Pre-Emergence Protocol; conditions: Amaranthus retroflexus, pre-emergence, 312 h, evaluated after 13 days; for pest or weed control at 15.625 g/ha: 15.625 g ai/ha; for pest or weed control at 15.625 g/ha / pest or weed control at 250 g/ha: read-out: Pigweed, Redroot damage rating (100=total damage to plant; 0=no damage to plant); for pest or weed control at 62.5 g/ha: 62.5 g ai/ha, 100=total damage to plant, 0=no damage to plant, read-out: Pigweed, Redroot damage rating; for pest or weed control at 250 g/ha: 250 g ai/ha
How it was run: as §2

[10] = test system: barnyardgrass (Echinochloa crus-galli); assay: Test G Pre-Emergence Protocol; conditions: Echinochloa crus-galli, pre-emergence, 312 h, evaluated after 13 days; for pest or weed control at 15.625 g/ha: 15.625 g ai/ha; for pest or weed control at 15.625 g/ha / pest or weed control at 250 g/ha: read-out: Barnyardgrass damage rating (100=total damage to plant; 0=no damage to plant); for pest or weed control at 62.5 g/ha: 62.5 g ai/ha, 100=total damage to plant, 0=no damage to plant, read-out: Barnyardgrass damage rating; for pest or weed control at 250 g/ha: 250 g ai/ha
How it was run: as §2

[11] = test system: corn (Zea mays); assay: Test G Pre-Emergence Protocol; conditions: Zea mays, pre-emergence, 312 h, evaluated after 13 days; for plant injury at 15.625 g/ha: 15.625 g ai/ha; for plant injury at 15.625 g/ha / plant injury at 250 g/ha: read-out: Corn damage rating (100=total damage to plant; 0=no damage to plant); for plant injury at 62.5 g/ha: 62.5 g ai/ha, 100=total damage to plant, 0=no damage to plant, read-out: Corn damage rating; for plant injury at 250 g/ha: 250 g ai/ha
How it was run: as §2

[12] = test system: giant foxtail (Setaria faberi); assay: Test G Pre-Emergence Protocol; conditions: Setaria faberi, pre-emergence, 312 h, evaluated after 13 days; for pest or weed control at 15.625 g/ha: 15.625 g ai/ha; for pest or weed control at 15.625 g/ha / pest or weed control at 250 g/ha: read-out: Foxtail, Giant damage rating (100=total damage to plant; 0=no damage to plant); for pest or weed control at 62.5 g/ha: 62.5 g ai/ha, 100=total damage to plant, 0=no damage to plant, read-out: Foxtail, Giant damage rating; for pest or weed control at 250 g/ha: 250 g ai/ha
How it was run: as §2

CN1C[C@H](c2ccc(C(F)(F)F)cc2)[C@@H](C(=O)Nc2cccc3c2S(=O)(=O)CC3)C1=O (racemic) [Compound 1737]
0%: pest or weed control at 15.625 g/ha [1] | pest or weed control at 62.5 g/ha [1] | pest or weed control at 250 g/ha [1] | pest or weed control at 15.625 g/ha [2] | pest or weed control at 62.5 g/ha [2] | pest or weed control at 250 g/ha [2] | pest or weed control at 15.625 g/ha [3] | pest or weed control at 62.5 g/ha [3] | pest or weed control at 250 g/ha [3] | pest or weed control at 15.625 g/ha [4] | pest or weed control at 62.5 g/ha [4] | pest or weed control at 250 g/ha [4] | plant injury at 15.625 g/ha [5] | plant injury at 62.5 g/ha [5] | plant injury at 250 g/ha [5] | pest or weed control at 15.625 g/ha [6] | pest or weed control at 62.5 g/ha [6] | pest or weed control at 250 g/ha [6] | pest or weed control at 15.625 g/ha [7] | pest or weed control at 62.5 g/ha [7] | pest or weed control at 250 g/ha [7] | pest or weed control at 15.625 g/ha [8] | pest or weed control at 62.5 g/ha [8] | pest or weed control at 250 g/ha [8] | pest or weed control at 15.625 g/ha [9] | pest or weed control at 62.5 g/ha [9] | pest or weed control at 250 g/ha [9] | pest or weed control at 15.625 g/ha [10] | pest or weed control at 62.5 g/ha [10] | pest or weed control at 250 g/ha [10] | plant injury at 15.625 g/ha [11] | plant injury at 62.5 g/ha [11] | plant injury at 250 g/ha [11] | pest or weed control at 15.625 g/ha [12] | pest or weed control at 62.5 g/ha [12] | pest or weed control at 250 g/ha [12]

CN1C[C@H](c2ccc(F)c(F)c2)[C@@H](C(=O)Nc2cnccc2C(F)(F)F)C1=O (racemic) [Compound 1740]
30%: pest or weed control at 62.5 g/ha [10]
40%: pest or weed control at 62.5 g/ha [6] | pest or weed control at 250 g/ha [9] | pest or weed control at 250 g/ha [10]
20%: pest or weed control at 250 g/ha [1] | pest or weed control at 250 g/ha [4]
0%: pest or weed control at 15.625 g/ha [1] | pest or weed control at 62.5 g/ha [1] | pest or weed control at 15.625 g/ha [2] | pest or weed control at 62.5 g/ha [2] | pest or weed control at 15.625 g/ha [3] | pest or weed control at 62.5 g/ha [3] | pest or weed control at 250 g/ha [3] | pest or weed control at 15.625 g/ha [4] | pest or weed control at 62.5 g/ha [4] | plant injury at 15.625 g/ha [5] | plant injury at 62.5 g/ha [5] | plant injury at 250 g/ha [5] | pest or weed control at 15.625 g/ha [6] | pest or weed control at 15.625 g/ha [7] | pest or weed control at 62.5 g/ha [7] | pest or weed control at 250 g/ha [7] | pest or weed control at 15.625 g/ha [8] | pest or weed control at 62.5 g/ha [8] | pest or weed control at 15.625 g/ha [9] | pest or weed control at 62.5 g/ha [9] | pest or weed control at 15.625 g/ha [10] | plant injury at 15.625 g/ha [11] | plant injury at 62.5 g/ha [11] | pest or weed control at 15.625 g/ha [12]
60%: pest or weed control at 62.5 g/ha [12]
50%: pest or weed control at 250 g/ha [8]
90%: pest or weed control at 250 g/ha [12]
10%: pest or weed control at 250 g/ha [2] | plant injury at 250 g/ha [11]

CN1C[C@H](c2cccc(C(F)F)c2)[C@@H](C(=O)Nc2cnccc2C(F)(F)F)C1=O (racemic) [Compound 1742]
90%: pest or weed control at 250 g/ha [12]
80%: pest or weed control at 250 g/ha [4] | pest or weed control at 62.5 g/ha [6] | pest or weed control at 250 g/ha [6] | pest or weed control at 250 g/ha [10] | pest or weed control at 62.5 g/ha [12]
10%: pest or weed control at 62.5 g/ha [2] | pest or weed control at 250 g/ha [7] | pest or weed control at 62.5 g/ha [9]
20%: pest or weed control at 250 g/ha [2] | pest or weed control at 62.5 g/ha [3] | pest or weed control at 250 g/ha [9]
40%: pest or weed control at 250 g/ha [1]
50%: pest or weed control at 15.625 g/ha [12]
70%: pest or weed control at 62.5 g/ha [4] | plant injury at 250 g/ha [5] | pest or weed control at 15.625 g/ha [6]
0%: pest or weed control at 15.625 g/ha [1] | pest or weed control at 62.5 g/ha [1] | pest or weed control at 15.625 g/ha [2] | pest or weed control at 15.625 g/ha [3] | pest or weed control at 15.625 g/ha [4] | plant injury at 15.625 g/ha [5] | plant injury at 62.5 g/ha [5] | pest or weed control at 15.625 g/ha [7] | pest or weed control at 62.5 g/ha [7] | pest or weed control at 15.625 g/ha [8] | pest or weed control at 62.5 g/ha [8] | pest or weed control at 15.625 g/ha [9] | pest or weed control at 15.625 g/ha [10] | pest or weed control at 62.5 g/ha [10] | plant injury at 15.625 g/ha [11] | plant injury at 62.5 g/ha [11]
30%: pest or weed control at 250 g/ha [3] | pest or weed control at 250 g/ha [8] | plant injury at 250 g/ha [11]
